According to patent publication US12264173B2 (GILEAD SCIENCES, INC., priority 2020, dated 2025):
pEC50: −log10 of the molar value. Where two headings read alike, the source gives them in different places.

How the values were obtained:
Format in all cases: cell-based
[1] = system: RSV strain A2; assay: microbe, parasite or virus in culture; conditions: Table 3, HEp-2 cells, RSV A2, 4 days, read-out: RSV HEp-2 EC50
How it was run: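 Cytopathic-effect protection assay: HEp-2 cells (50,000/mL) infected with pre-titered RSV A2 onto 3-fold serial compound dilutions, incubated 4 days at 37° C. Cell viability read by CellTiter-Glo luminescence; percent inhibition derived against 0% and 100% virus-inhibition controls.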

[2] = system: RSV A2; assay: RSV NHBE EC50 (RSV A2 antiviral assay in NHBE cells); conditions: Table 3, NHBE cells, RSV A2, 4 days, read-out: RSV NHBE EC50
How it was run: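 NHBE cells (≤6 passages) were seeded at 7,500 cells per well, treated with 3-fold serially diluted compound at 0.05% DMSO, then infected with RSV A2 at 1×10^4.5 TCID/mL. After 4 days at 37° C, viability was measured by CellTiter-Glo luminescence.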

[3] = system: HRV16; assay: HRV16 HeLa EC50 (cytopathic effect in H1-HeLa cells)
How it was run: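 H1-HeLa cells seeded one day before, given 3-fold serial compound dilutions in triplicate just prior to infection with pre-titrated virus. Incubated 96 h at 33 °C/5% CO2; protection from cytopathic effect read as viability by CellTiter-Glo luminescence, normalised to infected untreated (0%) and uninfected (100%) controls.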

[4] = system: DENV2 replicon; assay: DENV-2 Huh-7 Rep EC50 (replicon luminescence); conditions: read-out: DENV-2 REP Huh7 EC50
Protocol: In 384 well plates (Greiner, Cat #781091), compounds were acoustically transferred at 200 nl per well in a 8 compound (4 replicates) or 40 compound dose response format (3 replicates). For all plates tested, Balapiravir, GS-5734 and NITD008 were included as positive inhibition controls alongside 0% inhibition, DMSO-only negative control wells. Following compound addition, Huh-7 cells containing the DENV2 replicon construct were harvested following standard cell culture procedures and were adjusted to a concentration of 1.25E5 cells/mL in cell culture media composed of cDMEM without genticin. 40 μL of the cell stock was then added to each well for a final cell density of 5,000 cells/well. Cell and compound mixtures were incubated at 37° C./5% CO2 for 48 hours. Prior to harvesting cells, EnduRen Live Cell Substrate (Promega, Cat #E6481) was prepared by suspending 3.4 mg into 100 uL of DMSO to generate a 60 mM stock solution. The stock solution was then diluted 1:200 in pre-warmed cDMEM and 10 uL of this diluted solution was added to each well of the 384 well plates. Plates were then centrifuged at 500 rpm briefly and were placed on a plate shaker for 2 min. Following mixing, plates were incubated at […] for 1.5 hours prior to measuring luminescence on an Envision luminometer.

[5] = Table 3; H1-HeLa cells, 96 h; read-out: HRV16 HeLa EC50
[6] = Table 3, Huh-7 DENV2 replicon cells, 48 hours
[7] = human respiratory syncytial virus, HEp-2, 96 h
[8] = human respiratory syncytial virus, NHBE, 96 h
[9] = 96 h, Table 3; H1-HeLa cells, 96 h; read-out: HRV16 HeLa EC50
[10] = Dengue virus, DENV2, Huh-7, 48 h

SMILES | pEC50 [1] | pEC50 [2] | pEC50 [3, 5] | pEC50 [4, 6] | pEC50 [1, 7] | pEC50 [2, 8] | pEC50 [3, 9] | pEC50 [4, 10]
CC(C)C(=O)O[C@H]1[C@H](c2ccc3c(N)ncnn23)O[C@](C#N)(COP(=O)(N[C@@H](C)C(=O)OCC2CCOCC2)Oc2ccccc2)[C@H]1OC(=O)C(C)C (single isomer, unassigned) [Example 182] | 7.06 | 7.77 | 6.75 | 5.46 | – | – | – | –
CCCOC(=O)[C@H](C)NP(=O)(OC[C@@]1(C#N)O[C@@H](c2ccc3c(N)ncnn23)[C@H](OC(=O)CC)[C@@H]1OC(=O)CC)Oc1ccccc1 (single isomer, unassigned) [Example 188] | 7.51 | 7.55 | 6.99 | 5.16 | – | – | – | –
CCCOC(=O)[C@H](C)NP(=O)(OC[C@@]1(C#N)O[C@@H](c2ccc3c(N)ncnn23)[C@H](OC(=O)CC)[C@@H]1OC(=O)CC)Oc1ccccc1 (single isomer, unassigned) [Example 189] | 7.44 | 7.29 | 6.94 | 5.05 | – | – | – | –
CCCOC(=O)[C@H](C)NP(=O)(OC[C@@]1(C#N)O[C@@H](c2ccc3c(N)ncnn23)[C@H](OC(=O)C(C)C)[C@@H]1OC(=O)C(C)C)Oc1ccccc1 (single isomer, unassigned) [Example 191] | 7.64 | 8.10 | 7.19 | 5.57 | – | – | – | –
CCCOC(=O)[C@H](C)NP(=O)(OC[C@@]1(C#N)O[C@@H](c2ccc3c(N)ncnn23)[C@H](OC(=O)C(C)C)[C@@H]1OC(=O)C(C)C)Oc1ccccc1 (single isomer, unassigned) [Example 192] | 7.54 | 7.35 | 7.00 | 5.06 | – | – | – | –
CCC(=O)OC1C(c2ccc3c(N)ncnn23)OC(C#N)(COP(=O)(NC(C)C(=O)OCC2COC2)Oc2ccccc2)C1OC(=O)CC (single isomer, unassigned) [Example 205] | 6.79 | 7.68 | 6.54 | 4.72 | – | – | – | –
CC(C)C(=O)OC1C(c2ccc3c(N)ncnn23)OC(C#N)(COP(=O)(NC(C)C(=O)OCC2CCC(N)CC2)Oc2ccccc2)C1OC(=O)C(C)C (single isomer, unassigned) [Example 208] | 5.67 | 6.67 | 4.82 | < 4.30 | – | – | – | –
CC(C)C(=O)OC1C(c2ccc3c(N)ncnn23)OC(C#N)(COP(=O)(NC(C)C(=O)OCC2CCC(N)CC2)Oc2ccccc2)C1OC(=O)C(C)C (single isomer, unassigned) [Example 209] | 5.81 | 6.77 | 5.07 | 4.50 | – | – | – | –
C[C@H](N[P@](=O)(OC[C@@]1(C#N)O[C@@H](c2ccc3c(N)ncnn23)C(OC(=O)c2ccccc2)[C@@H]1OC(=O)c1ccccc1)Oc1ccccc1)C(=O)OC1CCCCC1 (stereo in doubt) [Example 83, (2R,3S,4R,5S)-5-(4-aminopyrrolo[2,1-f][1,2,4]triazin-7-yl)-2-cyano-2-((((S)-(((S)-1-(cyclohexyloxy)-1-oxopropan-2-yl)amino)(phenoxy)phosphoryl)oxy)methyl) tetrahydrofuran-3,4-diyl dibenzoate] | – | – | – | – | < 4.00 | < 5.30 | 4.76 | 5.29
CCC(=O)OC1[C@H](c2ccc3c(N)ncnn23)O[C@](C#N)(COP(=O)(N[C@@H](C)C(=O)OCC2CCOCC2)Oc2ccccc2)[C@H]1OC(=O)CC (stereo in doubt) [Example 107, (2R,3S,4R,5S)-5-(4-aminopyrrolo[2,1-f][1,2,4]triazin-7-yl)-2-cyano-2-((((((S)-1-oxo-1-((tetrahydro-2H-pyran-4-yl)methoxy)propan-2-yl)amino)(phenoxy)phosphoryl)oxy)methyl)tetrahydrofuran-3,4-diyl dipropionate] | – | – | – | – | 7.01 | 7.51 | 6.41 | 4.65
CC(=O)OC1[C@H](c2ccc3c(N)ncnn23)O[C@](C#N)(COP(=O)(N[C@@H](C)C(=O)OCC2CCOCC2)Oc2ccccc2)[C@H]1OC(C)=O (stereo in doubt) [Example 110, (2R,3S,4R,5S)-5-(4-aminopyrrolo[2,1-f][1,2,4]triazin-7-yl)-2-cyano-2-((((((S)-1-oxo-1-((tetrahydro-2H-pyran-4-yl)methoxy)propan-2-yl)amino)(phenoxy)phosphoryl)oxy)methyl)tetrahydrofuran-3,4-diyl diacetate] | – | – | – | – | 6.49 | 7.40 | 5.60 | 4.25
CC(=O)OC1[C@H](c2ccc3c(N)ncnn23)O[C@](C#N)(COP(=O)(N[C@@H](C)C(=O)OCC2CCN(CC(F)(F)F)CC2)Oc2ccccc2)[C@H]1OC(C)=O (stereo in doubt) [Example 118, (2R,3S,4R,5S)-5-(4-aminopyrrolo[2,1-f][1,2,4]triazin-7-yl)-2-cyano-2-((((((S)-1-oxo-1-((1-(2,2,2-trifluoroethyl)piperidin-4-yl)methoxy)propan-2-yl)amino)(phenoxy)phosphoryl)oxy)methyl)tetrahydrofuran-3,4-diyl diacetate] | – | – | – | – | 6.65 | 7.59 | 6.13 | 4.26
CC(C)CCC(=O)O[C@H]1[C@H](c2ccc3c(N)ncnn23)O[C@](C#N)(CO[P@@](=O)(N[C@@H](C)C(=O)OC2CCCCC2)Oc2ccccc2)[C@H]1OC(=O)CCC(C)C [Example 78, (2R,3S,4S,5S)-5-(4-aminopyrrolo[2,1-f][1,2,4]triazin-7-yl)-2-cyano-2-((((S)-(((S)-1-(cyclohexyloxy)-1-oxopropan-2-yl)amino)(phenoxy)phosphoryl)oxy)methyl) tetrahydrofuran-3,4-diyl bis(4-methylpentanoate)] | – | – | – | – | 5.87 | 6.15 | 5.19 | 4.50
CC(C)C(=O)O[C@H]1[C@H](c2ccc3c(N)ncnn23)O[C@](C#N)(CO[P@@](=O)(N[C@@H](C)C(=O)O[C@H]2CC[C@H](C(F)(F)F)CC2)Oc2ccccc2)[C@H]1OC(=O)C(C)C [Example 79, (2R,3S,4S,5S)-5-(4-Aminopyrrolo[2,1-f][1,2,4]triazin-7-yl)-2-cyano-2-((((S)-(((S)-1-oxo-1-((trans-4-(trifluoromethyl)cyclohexyl)oxy)propan-2-yl)amino) (phenoxy)phosphoryl)oxy)methyl)tetrahydrofuran-3,4-diyl bis(2-methylpropanoate)] | – | – | – | – | 6.98 | 7.72 | 6.66 | 4.91
CC(C)C(=O)O[C@H]1[C@H](c2ccc3c(N)ncnn23)O[C@](C#N)(CO[P@@](=O)(N[C@@H](C)C(=O)O[C@H]2CC[C@H](C(C)(C)C)CC2)Oc2ccccc2)[C@H]1OC(=O)C(C)C [Example 80, (2R,3S,4S,5S)-5-(4-Aminopyrrolo[2,1-f][1,2,4]triazin-7-yl)-2-((((S)-(((S)-1-(((1r,4S)-4-(tert-butyl)cyclohexyl)oxy)-1-oxopropan-2-yl)amino)(phenoxy)phosphoryl)oxy)methyl)-2-cyanotetrahydrofuran-3,4-diyl bis(2-methylpropanoate)] | – | – | – | – | 5.93 | 6.80 | 5.80 | 5.28
CC(C)OC(=O)[C@H](C)N[P@](=O)(OC[C@@]1(C#N)O[C@@H](c2ccc3c(N)ncnn23)[C@H](OC(=O)C(C)C)[C@@H]1OC(=O)C(C)C)Oc1ccccc1 [Example 84, (2R,3S,4S,5S)-5-(4-aminopyrrolo[2,1-f][1,2,4]triazin-7-yl)-2-cyano-2-((((S)-(((S)-1-isopropoxy-1-oxopropan-2-yl)amino)(phenoxy)phosphoryl)oxy)methyl) tetrahydrofuran-3,4-diyl bis(2-methylpropanoate)] | – | – | – | – | 7.24 | 7.80 | 6.92 | 4.89
CC(C)C(=O)O[C@H]1[C@H](c2ccc3c(N)ncnn23)O[C@](C#N)(COP(=O)(N[C@@H](C)C(=O)OC[C@H]2CC[C@H](C(F)(F)F)CC2)Oc2ccccc2)[C@H]1OC(=O)C(C)C (some centres unmarked) [Example 87] | – | – | – | – | 6.92 | 7.64 | 6.66 | 4.91
